Laboratory results published in ChEMBL document CHEMBL1201862, “PubChem BioAssay data set” (2004).
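All cell lines were grown in 96-well plates and treated with compound for 48 hours. GI50 marks 50% less growth.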 Active and inactive are the calls of the source. Rule as the data show it: active = GI50 up to about 1.1 µM and inactive = higher.

Columns and labels:
Test in all cases: NCI anticancer screen, dose series, 48 h
DU-145 = tested on: DU-145
NCI-H23 = tested on: NCI-H23
HCT-116 = tested on: HCT-116
HOP-62 = tested on: HOP-62
COLO 205 = tested on: COLO 205
PC-3 = tested on: PC-3
OVCAR-5 = tested on: OVCAR-5
IGROV-1 = tested on: IGROV-1
MCF7 = tested on: MCF7
RPMI-8226 = tested on: RPMI-8226
CCRF-CEM = tested on: CCRF-CEM
SNB-19 = tested on: SNB-19
SF-295 = tested on: SF-295
SW-620 = tested on: SW-620
A549 = tested on: A549
SN12C = tested on: SN12C
MDA-N = tested on: MDA-N
UACC-257 = tested on: UACC-257
T47D = tested on: T47D

SMILES	GI50 (DU-145)	GI50 (NCI-H23)	GI50 (HCT-116)	GI50 (HOP-62)	GI50 (COLO 205)	GI50 (PC-3)	GI50 (OVCAR-5)	GI50 (IGROV-1)	GI50 (MCF7)	GI50 (RPMI-8226)	GI50 (CCRF-CEM)	GI50 (SNB-19)	GI50 (SF-295)	GI50 (SW-620)	GI50 (A549)	GI50 (SN12C)	GI50 (MDA-N)	GI50 (UACC-257)	GI50 (T47D)
O=C(c1cccs1)N(C(=S)OCCOc1ccccc1)c1ccccc1	28.6 µM (inactive)	20.7 µM (inactive)	19.4 µM (inactive)	28.2 µM (inactive)	24.8 µM (inactive)	24.7 µM (inactive)	28.4 µM (inactive)	25.4 µM (inactive)	20.2 µM (inactive)	20.9 µM (inactive)	27.6 µM (inactive)	29.4 µM (inactive)	26.5 µM (inactive)	25.5 µM (inactive)	28.1 µM (inactive)	22.1 µM (inactive)	17.2 µM (inactive)	29.4 µM (inactive)	35.8 µM (inactive)
COC(=O)C1=CSC2(S1)C(C(=O)OC)=CSc1c2ssc1=O (stereo not drawn)	1.73 µM (inactive)	2 µM (inactive)	1.61 µM (inactive)	3.06 µM (inactive)	1.87 µM (inactive)	2.22 µM (inactive)	8.15 µM (inactive)	1.66 µM (inactive)	1.75 µM (inactive)	1.55 µM (inactive)	0.762 µM (active)	6.05 µM (inactive)	16.3 µM (inactive)	1.33 µM (inactive)	7.43 µM (inactive)	2.12 µM (inactive)	2.13 µM (inactive)	1.87 µM (inactive)	2.14 µM (inactive)
CC1=C(C)SC(=C2Sc3c(n(C)c(=O)[nH]c3=O)S2)S1	> 100 µM (inactive)	> 100 µM (inactive)	> 100 µM (inactive)	> 100 µM (inactive)	> 100 µM (inactive)	> 100 µM (inactive)	> 100 µM (inactive)	> 100 µM (inactive)	> 100 µM (inactive)	> 100 µM (inactive)	> 100 µM (inactive)	> 100 µM (inactive)	> 100 µM (inactive)	> 100 µM (inactive)	> 100 µM (inactive)	> 100 µM (inactive)	> 100 µM (inactive)	> 100 µM (inactive)	> 100 µM (inactive)
C=C(C)[C@@H]1CCC2=C[C@H](OC2=O)[C@@]2(C)C[C@@H]2C(=O)/C=C(/C)C(=O)[C@H]1OC(C)=O	5.97 µM (inactive)	11.6 µM (inactive)	5.74 µM (inactive)	34.6 µM (inactive)	18.3 µM (inactive)	13 µM (inactive)	15.5 µM (inactive)	14.1 µM (inactive)	4.52 µM (inactive)	4.12 µM (inactive)	5.02 µM (inactive)	29.2 µM (inactive)	42.6 µM (inactive)	14 µM (inactive)	29.2 µM (inactive)	21.5 µM (inactive)	8.67 µM (inactive)	21.1 µM (inactive)	5.64 µM (inactive)
O=C1CCCC2C3CC(CN12)C1CCCCN1C3.[O-][Cl+3]([O-])([O-])O (stereo not drawn)	> 100 µM (inactive)	> 100 µM (inactive)	> 100 µM (inactive)	> 100 µM (inactive)	> 100 µM (inactive)	> 100 µM (inactive)	> 100 µM (inactive)	> 100 µM (inactive)	> 100 µM (inactive)	> 100 µM (inactive)	> 100 µM (inactive)	> 100 µM (inactive)	> 100 µM (inactive)	> 100 µM (inactive)	> 100 µM (inactive)	> 100 µM (inactive)	> 100 µM (inactive)	> 100 µM (inactive)	> 100 µM (inactive)
CNC(=O)CNC(=O)CCC(=O)N(C)C	> 100 µM (inactive)	> 100 µM (inactive)	> 100 µM (inactive)	> 100 µM (inactive)	> 100 µM (inactive)	> 100 µM (inactive)	> 100 µM (inactive)	> 100 µM (inactive)	> 100 µM (inactive)	> 100 µM (inactive)	> 100 µM (inactive)	> 100 µM (inactive)	> 100 µM (inactive)	> 100 µM (inactive)	> 100 µM (inactive)	> 100 µM (inactive)	> 100 µM (inactive)	> 100 µM (inactive)	> 100 µM (inactive)
CN(/N=C/c1ccc(Cl)c(Cl)c1)C1=NCCCCN1	91.2 µM (inactive)	55.5 µM (inactive)	24.4 µM (inactive)	16.7 µM (inactive)	16.7 µM (inactive)	25.3 µM (inactive)	27.9 µM (inactive)	52.6 µM (inactive)	19.8 µM (inactive)	27.9 µM (inactive)	31 µM (inactive)	45.4 µM (inactive)	34.4 µM (inactive)	15.6 µM (inactive)	62.4 µM (inactive)	42 µM (inactive)	19.9 µM (inactive)	22.6 µM (inactive)	16.6 µM (inactive)
